Read-outs that look alike come from different tables or passages of the source.
Tests used:
[1] = test system: “CD151-low” cell subpopulation obtained under conditions for differentiation into atrial myocytes; assay: Membrane potential analysis (FluoVolt dye) of response to atrial myocyte-specific channel inhibitor or activator, CD151-low cells; assay type: cell-based, human; settings: 3 Hz pacing
Procedure: (§1) The “CD151-high” cell subpopulation was obtained under conditions for differentiation into ventricular myocytes and the “CD151-low” cell subpopulation was obtained under conditions for differentiation into atrial myocytes in Test Example 2. Then, their response to an atrial […] channel inhibitor 4-aminopyridine or activator carbachol was analyzed.
(§2) Each cell subpopulation was seeded at 5×10^4 cells/5 μL and cultured on a glass-bottom dish coated with fibronectin. StemPro-34 SFM containing 1% L-glutamine, 150 μg/mL transferrin, 50 μg/mL ascorbic acid, 4×10^−4 M monothioglycerol, and 5 ng/ml VEGF was used. The culture medium was changed every 3 days, and the cells were cultured at 37° C. under regular oxygen conditions. The cells at culture days 6 to 10 were subjected to membrane potential analysis.
(§3) First, the culture medium was removed. Next, 0.2 μL of membrane potential sensitive dye (FluoVolt, ThermoFisher scientific, F10488) was added per 200 μL of Gey's balanced salt solution (Sigma). […] Each “CD151-high”-induced cell was analyzed under 1 Hz pacing, and each “CD151-low”-induced cell was analyzed under 3 Hz pacing.
(§4) An AquaCosmos2.6 (Hamamatsu Photonics K. K.) was used for the analysis. While each cell was irradiated with excitation light at 490 nm every 5.9 ms for 20 s, the fluorescence response was measured. […]

[2] = test system: “CD151-high” cell subpopulation obtained under conditions for differentiation into ventricular myocytes; assay: Membrane potential analysis (FluoVolt dye) of response to atrial myocyte-specific channel inhibitor or activator, CD151-high cells; assay type: cell-based, human; settings: 1 Hz pacing
Procedure: as §1, §2, §3, §4

atrial myocyte = settings: cited from earlier work
ventricular myocyte = settings: cited from earlier work
[3] = 4-aminopyridine 50 μM final, 10 min after addition, FIG. 5(A)
[4] = carbachol 10 μM final, 1 min after addition, FIG. 5(B)

| Compound | effect on action potential duration (APD) [1, 3] | effect on action potential duration (APD) [2, 3] | effect on APD20 (atrial myocyte; 4-aminopyridine added to a cell, blocker of ultra-rapidly activating delayed rectifier potassium channel (IKur)) | effect on APD (ventricular myocyte; 4-aminopyridine added to a cell) | effect on action potential duration (APD) [1, 4] | effect on action potential duration (APD) [2, 4] | effect on action potential duration (APD) (atrial myocyte; carbachol added to a cell, activator of muscarinic potassium channel (IK,Ach)) | effect on APD (ventricular myocyte; carbachol added to a cell) |
| --- | --- | --- | --- | --- | --- | --- | --- | --- |
| Nc1ccncc1 [4-aminopyridine] | prolong the action potential duration (APD) | little APD extension | prolonged only in the atrial myocyte | not affected |  |  |  |  |
| C[N+](C)(C)CCOC(N)=O [carbachol] |  |  |  |  | shorten the APD | no APD change | shortened only in the atrial myocyte | not affected |
